Measured values reported in the supplement of paper PMC7801607.

These compounds were tested on Plasmodium falciparum Dd2 asexual blood stage.
For `Nc1ccc(-c2nc3cc(C(F)(F)F)ccc3n2C23CC4CC(CC(C4)C2)C3)cc1`, the IC50 was > 5 µM.
`NNC(=O)c1ccncc1` was tested, and the IC50 was > 5 µM.
In the case of `CCc1ccccc1OCCN1CCCCCC1`, the IC50 is reported as > 5 µM.
`Nc1cccc(-c2nc(N)nc(NC3Cc4ccccc4C3)n2)c1` was tested, and the IC50 was > 5 µM.
With `O=C(O)c1ccc(-n2nc(-c3ccccc3O)nc2-c2ccccc2O)cc1` the IC50 was > 5 µM.
`CCc1cc(Nc2cc(=O)n(CCN3CCN(C(=O)c4ccccc4)CC3)c(=O)[nH]2)ccc1C` was tested, and the IC50 was > 5 µM.
With `CC(C)CCN1C(=O)C(C2=NS(=O)(=O)c3cc(NS(C)(=O)=O)ccc3N2)=C(O)[C@@H]2[C@H]3CC[C@H](C3)[C@@H]21` the IC50 was > 5 µM.
`O=C(Nc1ccccc1C(=O)O)c1cccc(Oc2ccccc2)c1` was tested, and the IC50 was > 5 µM.
For `O=C(NCc1ccccc1Cl)c1cnc2ccccc2n1`, the IC50 was > 5 µM.
For `O=c1cc(OCc2ccccc2)ccn1Cc1ccccc1`, the IC50 was > 5 µM.
For `C[C@H]1CC[C@@]2(O)C(C)(C)[C@@H]3CC[C@@]2(C)[C@H]1C3`, the IC50 was > 5 µM.
For `Cc1nc(N(C)C(=O)Cc2ccc(-c3ccccn3)cc2)sc1S(N)(=O)=O`, the IC50 was > 5 µM.
With `O=C1[C@H](CC[C@H](O)c2ccc(F)cc2)[C@@H](c2ccc(O)cc2)N1c1ccc(F)cc1` the IC50 was > 5 µM.
In the case of `C[C@@H]1O[C@@H]1P(=O)(O)O`, the IC50 is reported as > 5 µM.
With `O=C(O)c1cc(-c2ccc(Br)cc2)nc2ccc(Cl)cc12` the IC50 was > 5 µM.
In the case of `O=C(NC1CCCc2c1[nH]c1ccc(Cl)cc21)c1ccccn1` (stereo unspecified), the IC50 is reported as > 5 µM.
In the case of `O=C(O)COc1cccc2c1CC[C@](O)(COC(=O)N(c1ccccc1)c1ccccc1)C2`, the IC50 is reported as > 5 µM.
With `O=C(Cc1ccccc1F)Nc1nc2ccccc2[nH]1` the IC50 was > 5 µM.
With `CC(=O)O[C@H]1C[C@@]2(C)[C@@H](C[C@@H](O)[C@H]3[C@@]4(C)CC[C@@H](O)[C@@H](C)[C@@H]4CC[C@@]32C)/C1=C(\CCC=C(C)C)C(=O)O` the IC50 was > 5 µM.
`CCCC1(C2CC2)c2cc(Cl)ccc2NC(=O)N1C` (stereo unspecified) was tested, and the IC50 was > 5 µM.
For `Cc1cc(-c2ccccc2)c(C(=O)C(=O)Nc2ccc(N3CCN(c4ncc(F)cn4)CC3)cc2)n1C`, the IC50 was > 5 µM.
`O=C(Nc1ncc(Cc2cccc3ccccc23)s1)C1CCCCC1` was tested, and the IC50 was > 5 µM.
For `CNC(=O)C1O[C@@H](n2cnc3c(NCc4cccc(I)c4)nc(Cl)nc32)[C@H](O)[C@@H]1O` (stereo partly specified), the IC50 was > 5 µM.
`O=C(O)c1sccc1S(=O)(=O)n1ccc2cc(Br)ccc21` was tested, and the IC50 was > 5 µM.
With `Nc1nnc(-c2ccc(Cl)cc2)s1` the IC50 was > 5 µM.
With `CC(=O)N[C@H](C)C(=O)N[C@H](Cc1ccccc1)C(=O)O` the IC50 was > 5 µM.
With `CCNC(=O)Nc1cc(-c2ccccc2)c(-c2cncc(C(=O)O)c2)cn1` the IC50 was > 5 µM.
For `O=C(NC(=O)N1CCCc2ccccc21)c1ccc(Cl)cc1Cl`, the IC50 was > 5 µM.
`CS(=O)(=O)c1ccc(Oc2ccc(Cl)cc2)cc1` was tested, and the IC50 was > 5 µM.
With `CCOC(=O)N1CCN(c2ccc(Cl)cc2)CC1` the IC50 was > 5 µM.
`CCC(C)n1ncn(-c2ccc(N3CCN(c4ccc(OCC5COC(Cn6cncn6)(c6ccc(Cl)cc6Cl)O5)cc4)CC3)cc2)c1=O` (stereo unspecified) was tested, and the IC50 was 4.35 µM.
In the case of `Nc1nc(-c2ccccc2)nc2[nH]nc(Nc3ccc(C(F)(F)F)cc3)c12`, the IC50 is reported as 4.1 µM.
With `FC(F)(F)c1cc(C(F)(F)F)c2ccc3nc(-c4nnco4)cn3c2n1` the IC50 was > 5 µM.
In the case of `O=C(Nc1ccc(Cl)c(C(F)(F)F)c1)C(CCCl)C(=O)Nc1ccc(Cl)c(C(F)(F)F)c1`, the IC50 is reported as > 5 µM.
`COc1cc(NC(=O)CN2C(=O)NC(c3ccccc3)(c3ccccc3)C2=O)cc(OC)c1` was tested, and the IC50 was > 5 µM.
`O=C(Cn1cnc2ccccc2c1=O)Nc1ccccc1` was tested, and the IC50 was > 5 µM.
For `O=C(NO)C1(CS(=O)(=O)c2ccc(Oc3ccc(Cl)cc3)cc2)CCOCC1`, the IC50 was > 5 µM.
For `CC(C)Oc1ccc(-n2cnc3cc(/C=C\c4ccc(C(C)(C)O)cc4)ccc32)cc1`, the IC50 was > 5 µM.
With `CC(=O)N1CCN(c2ccc(OCC3COC(Cn4ccnc4)(c4ccc(Cl)cc4Cl)O3)cc2)CC1` (stereo unspecified) the IC50 was > 5 µM.
`CO[C@@]1(NC(=O)Cc2cccs2)C(=O)N2C(C(=O)O)=C(COC(N)=O)CS[C@@H]21` was tested, and the IC50 was > 5 µM.
With `CC(C)N(c1cc(-c2ccccc2)sc1C(=O)O)C(=O)[C@H]1CC[C@H](C)CC1` the IC50 was > 5 µM.
With `Nc1nc(N)c2c(Sc3ccccc3)cccc2n1` the IC50 was > 5 µM.
For `CC(C)(C)OC(=O)NCc1ccc(C(=O)N[C@H]2CCOC2=O)cc1`, the IC50 was > 5 µM.
In the case of `CC(Oc1ccc(Cl)cc1Cl)C(=O)NCc1ccc2c(c1)OCO2` (stereo unspecified), the IC50 is reported as > 5 µM.
`CCCCOC(=O)Nc1cc2nc(C3CCCCC3)[nH]c2cc1N(CC)CC` gave an IC50 of 1.79 µM.
With `CC1(C)[C@H](C(=O)O)N2C(=O)C[C@H]2S1(=O)=O` the IC50 was > 5 µM.
With `CN(C(=O)C1(c2ccc(Cl)cc2)CCC1)c1ccccc1` the IC50 was > 5 µM.
With `Cc1cc(CCOc2c(C)cc(-c3nnn(C)n3)cc2C)on1` the IC50 was > 5 µM.
For `C/C(=N\NC(=O)C1CC1c1ccccc1)c1ccc(NC(=O)c2ccco2)cc1` (stereo unspecified), the IC50 was > 5 µM.
For `Cc1cc(Nc2ccc(F)cc2)nc(SCc2nc3ccccc3[nH]2)n1`, the IC50 was > 5 µM.
For `Oc1cc(-c2cccc3ccccc23)[nH]n1`, the IC50 was > 5 µM.
